Key:
Assay type in all cases: cell-based, human
A375 cells [1] = assay: abundance of mitochondria, MitoTracker; details: miR-211-expressing cells
A375 cells [2] = assay: lipid species (PI acyl chains) by mass spectrometry in A375 vs A375/211; details: A375/211 vs A375 cells
Text: To determine the effect of miR-211 expression in A375 cells on the production of lipid species, as an indicator of metabolic change, fatty acids were isolated and quantitated in A375 cells and A375/211 by mass spectrometry. […] This confirms that miR-211 is capable of altering the metabolic profile of these metabolic cells.

A375 melanoma cells = assay: cell proliferation (cell counts) of A375 lines; details: A375/211
Protocol: The over-expression of KCNMA1 is often associated with both cell proliferation and cell migration/invasion in various cancers. Therefore, the effects of depletion of miR-211 and associated over-expression of KCNMA1 on these process in melanoma cells were determined. Proliferation rates of melanoma cell lines stably transfected with the miR-211 expression cassette were compared with those of untransfected melanoma cells and cell lines transfected with the empty expression vector (FIG. 8A), respectively.
Assays were performed using WM1552C, WM1552C/VO, WM1552C/211(400), WM1552C/211(800), A375, A375/VO, and A375/211 cell lines. Cells were grown in log phase, trypsinized, counted using an automated cell counter (Cellometer®, Nexcelom Bioscience), and then seeded into 75 cm^2 flasks at 5×10^5 cells per flask (in triplicate). Media was changed after 6 hours, and cells were further fed every 48 hours (Complete Tu Media). At days 4, 10, 15, and 21, cells were trypsinized, counted (Cellometer®, Nexcelom Bioscience), and then reseeded. Each assay was performed in duplicate for all cell lines.

IGFBP5 mRNA = assay: Next Gen sequencing of IGFBP5 mRNA in WM1552C cells
Protocol: To extend the findings of the MITF knock-down study and to further establish IGFBP5 as a miR-211 target, the effect of miR-211 expression on IGFBP5 mRNA was determined. WM1552C cells were transfected with either an empty vector or the vector encoding and expressing miR-211. Additionally, untransfected WM1552C cells were treated with 5-Aza-2′deoxycytidine (“5-Aza”) to investigate whether miR-211 down-regulates IGFBP5 mRNA production through a genomic methylation mechanism.

**Q.** What does the source list for “miR-211: pre-miR-211 sequence stably expressed from plasmid pcDNA4/miR-211 in melanoma cells; mature sequence UUCCCUUUGUCAUCCUUCGCCU (SEQ ID NO: 15) (listed as Homo sapiens)”?
**A.** number of mitochondria vs empty vector-expressing cells (A375 cells [1]): higher number of mitochondria; content of 18:0-18:2 acyl chains (A375 cells [2]): large increase; content of 18:0-20:4 acyl chains (A375 cells [2]): large decrease; cell proliferation compared to untransfected A375 or A375/VO (A375 melanoma cells): grew more slowly; IGFBP5 mRNA expression (IGFBP5 mRNA): almost to undetectably levels

Reference: US9994915B2, “miR-211 expression and related pathways in human melanoma” (Sanford-Burnham Medical Research Institute, priority 2010, dated 2018)
